In patent US9650399B2, “Salicylic acid derivatives, pharmaceutically acceptable salt thereof, composition thereof and method of use thereof” (The Governing Council of the University of Toronto, priority 2012, dated 2017):
Read-outs that look alike come from different tables or passages of the source. Blank lines part the entries; values can stand above or below the molecule they belong to.

Experiments:
[1] = tested on: BTSC30M; test: alamarBlue cell viability, BTSC 30M; type: cell-based, human; details: for IC50: Homo sapiens
Description: (§1) First, the library was screened for biological activity against a set of three representative GBM BTSCs derived from GBM patients, including the very aggressive GBM BTSC lines, BTSC73M, BTSC30M, BTSC68EF. Dissociated BTSC spheres were seeded at 1500 cells/96-well and treated with drug compound or vehicle (DMSO) one day after plating. Cell viability following drug treatment was assessed after 72 hrs using the ALAMARBLUE™ assay (Invitrogen) according to the manufacturer's instructions. All culture experiments were performed in triplicate with a minimum of three wells per condition.
(§2) BTSC spheres were dissociated to single cells with the enzyme Accumax (Innovative Technologies), seeded at 1500 cells/96-well and treated with drug or vehicle (DMSO) one day after plating. […] BTSC spheres were dissociated to single cells as above and plated in 96 well plates in triplicate at 3000 cells/96-well. […] Cell viability following drug treatment was assessed three days later using the ALAMARBLUE™ assay (Invitrogen) according to the manufacturer's instructions. All culture experiments were performed in triplicate with a minimum of three wells per condition.

[2] = tested on: Prostate (DU145); test: IC50 in prostate cancer cells; type: cell-based; details: Homo sapiens, DU-145; Table 6
[3] = tested on: Breast cancer cells (MDA-MB-468); test: IC50 in breast cancer cells; type: cell-based; details: Homo sapiens, Table 6
[4] = tested on: leukemia cancer cells (AML-2); test: IC50 in leukemia cancer cells; type: cell-based; details: Table 6
[5] = tested on: BTSC73M; test: alamarBlue cell viability, BTSC 73M; type: cell-based, human; details: alamarBlue; for IC50: Homo sapiens
Description: as §1, §2

[6] = tested on: 147EF; test: alamarBlue cell viability, BTSC 147EF; type: cell-based, human; details: Table 4 library screen; for IC50: Homo sapiens
Description: BTSC spheres were dissociated to single cells with the enzyme Accumax (Innovative Technologies), seeded at 1500 cells/96-well and treated with drug or vehicle (DMSO) one day after plating. Cytotoxicity studies were repeated independently at Sickkids Hospital using BTSC lines 25M, 67EF, 73EF, 84EF and 127EF. BTSC spheres were dissociated to single cells as above and plated in 96 well plates in triplicate at 3000 cells/96-well. In both sets of experiments drugs were used as serial dilutions within the range of 5 μM to 100 nM in the first set and 25 μM to 10 nM. Cell viability following drug treatment was assessed three days later using the ALAMARBLUE™ assay (Invitrogen) according to the manufacturer's instructions. All culture experiments were performed in triplicate with a minimum of three wells per condition. Table 4 below illustrates a screen of the library against a number of BTSCs using ALAMARBLUE™ assay.

[7] = tested on: BTSC68EF; test: alamarBlue cell viability, BTSC 68EF; type: cell-based, human; details: Table 4 library screen, alamarBlue; for IC50: Homo sapiens, read-out: 68EF IC50
Description: as §1, §2

[8] = tested on: patient-derived pancreatic cancer line (Panc10.05); test: MTS cell survival, pancreatic cancer line; type: cell-based; details: Homo sapiens, Panc1005, Panc10.05, 72 h, read-out: ED50 (IC50)
Description: Low passage patient-derived pancreatic cancer line (Panc10.05) was plated in 96-well plates (3×10^3 per well) and allowed to attach overnight. STAT3 inhibitors 31, 41, 42 and 38 were added at indicated concentrations. Cell survival was measured 72 h after drug addition with the MTS assay.

[9] = tested on: pSTAT3 (Y705); test: Western blot of phosphorylated STAT3 in BTSCs; type: cell-based, human; details: BTSC 73M, 1 μM inhibitor
Description: Blots were stained with antibodies: phospho-Y705, phospho-S727, Bcl-xL, cyclin D1, PARP and Actin. Bands were visualized with the ECL PLUS™ Western Blotting Detection System and […]™ (Amersham). […] BTSC spheres were lysed in modified RIPA buffer supplemented with Complete Mini protease (Roche) and Halt phosphatase (Thermo Scientific) inhibitor cocktails. […] Blots were stained with the following antibodies: phospho-STAT3 Y705 (1:1000, Cell Signalling Technology), phospho-STAT3 S727 (1:1000, Cell Signalling Technology), STAT3 (1:1000, Santa Cruz Biotechnology), Bcl-xL (1:1000, Cell Signalling Technology), cyclin D1 (1:1000, Cell Signalling Technology) PARP (1:1000, Cell Signalling Technology) and Actin (1:2500, Santa Cruz Biotechnology). HRP conjugated secondary antibodies, goat anti-rabbit (Cell Signalling Technology) were used at 1:2000 and donkey anti-mouse, donkey anti-goat, and goat anti-rabbit, (Calbiochem) were used at 1:6000. Bands were visualized with the ECL Plus Western Blotting Detection System and Hyperfilm (Amersham).

[10] = tested on: BTSCs; test: alamarBlue cytotoxicity across BTSC lines; type: cell-based, human
Description: as §1, §2

[11] = target: T1, JAK2 (Homo sapiens, UniProt O60674); test: HotSpot radiometric kinase assay, JAK2; type: biochemical; details: 5 uM compound, 10 μM ATP, duplicate (Data 1, Data 2)
T1 construct: purchased Reaction Biology Corporation
Description: (§3) Briefly, this assay employs a radiometric detection system to measure kinase phosphoryl transfer activity.
(§4) Test compound was evaluated at a single dose of 5 μM in duplicate mode. […] Reactions were carried out at 10 μM ATP.
(§5) Preliminary screen against AKT, c-Src, ERK1, JaK1 and JaK2 was performed at Reaction Biology Corporation (www.reactionbiology.com, Malvern, Pa.) using the “HotSpot” assay platform. Specific kinase/substrate pairs along with their required cofactors were prepared in reaction buffer; 20 mM Hepes pH 7.5, 10 mM MgCl2, 1 mM EGTA, 0.02% Brij35, 0.02 mg/ml BSA, 0.1 mM Na3VO4, 2 mM DTT, 1% DMSO. The screen was completed in duplicate at a single concentration of 5 μM. The reaction well with the subject compound was treated with a mixture of ATP (Sigma, St. Louis Mo.) and ^33P ATP (Perkin Elmer, Waltham Mass.) to a final concentration of 10 μM. […] Reaction wells were kept at room temperature for 120 minutes, followed by spotting each of the reactions onto P81 ion exchange filter paper (Whatman Inc., Piscataway, N.J.). […] Background was subtracted using control reactions and the kinase activity data was expressed as the percent remaining kinase activity in test samples compared to vehicle (dimethyl sulfoxide) reactions. All IC50 values (table 3) and curve fitting were produced using Prism (GraphPad Software) (FIG. 5).

[12] = target: T2, ERK1 (Homo sapiens, UniProt P27361); test: HotSpot radiometric kinase assay, ERK1; type: biochemical; details: 5 uM compound, 10 μM ATP, duplicate (Data 1, Data 2)
T2 construct: purchased Reaction Biology Corporation

[13] = target: T3, c-Src (Homo sapiens, UniProt P12931); test: HotSpot radiometric kinase assay, c-Src; type: biochemical; details: 5 uM compound, 10 μM ATP, duplicate (Data 1, Data 2)
T3 construct: purchased Reaction Biology Corporation
Description: as §3, §4, §5

[14] = target: T4, JAK1 (Homo sapiens, UniProt P23458); test: HotSpot radiometric kinase assay, JAK1; type: biochemical; details: 5 uM compound, 10 μM ATP, duplicate (Data 1, Data 2)
T4 construct: purchased Reaction Biology Corporation
Description: as §3, §4, §5

[15] = target: T5, AKT1 (Homo sapiens, UniProt P31749); test: HotSpot radiometric kinase assay, AKT1; type: biochemical; details: 5 uM compound, 10 μM ATP, duplicate (Data 1, Data 2)
T5 construct: purchased Reaction Biology Corporation

[16] = read-out: IC50 BTSC 30M, Table 6, in parallel with other cancer lines
[17] = Table 4 library screen, alamarBlue
[18] = Table 4 library screen, read-out: 73M IC50
[19] = read-out: 30M IC50 (μM), Table 4 library screen, alamarBlue

T4 sequence (P23458 whole entry): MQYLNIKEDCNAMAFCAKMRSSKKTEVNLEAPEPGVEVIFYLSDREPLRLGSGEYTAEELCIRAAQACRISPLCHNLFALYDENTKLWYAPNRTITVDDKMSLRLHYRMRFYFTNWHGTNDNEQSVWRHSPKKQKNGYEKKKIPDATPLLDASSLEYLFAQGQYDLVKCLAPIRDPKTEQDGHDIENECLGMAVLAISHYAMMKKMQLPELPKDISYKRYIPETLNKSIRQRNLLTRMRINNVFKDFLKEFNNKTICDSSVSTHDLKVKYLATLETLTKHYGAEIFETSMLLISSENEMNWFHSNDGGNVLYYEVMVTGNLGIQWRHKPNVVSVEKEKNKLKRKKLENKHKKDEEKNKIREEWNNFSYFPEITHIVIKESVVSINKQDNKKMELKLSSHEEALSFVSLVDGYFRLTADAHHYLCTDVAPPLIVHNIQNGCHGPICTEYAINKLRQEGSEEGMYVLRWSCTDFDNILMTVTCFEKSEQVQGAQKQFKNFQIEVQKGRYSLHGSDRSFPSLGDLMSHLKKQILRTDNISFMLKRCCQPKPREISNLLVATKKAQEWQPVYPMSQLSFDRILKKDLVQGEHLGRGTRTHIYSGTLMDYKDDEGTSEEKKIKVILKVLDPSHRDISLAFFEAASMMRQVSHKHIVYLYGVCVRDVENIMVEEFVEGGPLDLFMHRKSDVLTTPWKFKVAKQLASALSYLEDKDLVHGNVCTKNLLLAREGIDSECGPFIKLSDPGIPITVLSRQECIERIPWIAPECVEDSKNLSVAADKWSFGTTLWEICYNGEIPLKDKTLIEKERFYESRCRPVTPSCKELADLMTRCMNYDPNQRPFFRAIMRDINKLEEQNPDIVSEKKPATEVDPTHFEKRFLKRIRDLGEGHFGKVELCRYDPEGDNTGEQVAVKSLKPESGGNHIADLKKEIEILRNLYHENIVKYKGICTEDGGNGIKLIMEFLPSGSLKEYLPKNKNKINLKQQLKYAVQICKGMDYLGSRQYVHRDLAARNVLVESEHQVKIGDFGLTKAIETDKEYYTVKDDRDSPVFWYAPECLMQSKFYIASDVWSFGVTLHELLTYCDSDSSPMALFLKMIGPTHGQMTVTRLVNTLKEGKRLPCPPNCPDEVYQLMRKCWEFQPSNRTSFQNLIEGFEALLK
T5 sequence (P31749 whole entry): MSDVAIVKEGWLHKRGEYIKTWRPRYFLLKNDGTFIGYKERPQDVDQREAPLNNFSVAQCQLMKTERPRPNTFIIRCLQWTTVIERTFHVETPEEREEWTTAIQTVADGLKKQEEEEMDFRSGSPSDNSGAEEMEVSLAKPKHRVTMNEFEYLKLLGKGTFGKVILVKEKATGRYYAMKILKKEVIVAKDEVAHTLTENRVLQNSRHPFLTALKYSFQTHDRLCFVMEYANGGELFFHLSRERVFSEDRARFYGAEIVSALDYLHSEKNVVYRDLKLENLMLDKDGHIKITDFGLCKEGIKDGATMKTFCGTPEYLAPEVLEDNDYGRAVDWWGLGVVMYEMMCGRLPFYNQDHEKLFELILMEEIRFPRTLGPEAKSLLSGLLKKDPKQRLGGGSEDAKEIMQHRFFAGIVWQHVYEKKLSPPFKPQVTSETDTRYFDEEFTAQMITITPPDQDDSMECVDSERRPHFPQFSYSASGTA
T2 sequence (P27361 whole entry): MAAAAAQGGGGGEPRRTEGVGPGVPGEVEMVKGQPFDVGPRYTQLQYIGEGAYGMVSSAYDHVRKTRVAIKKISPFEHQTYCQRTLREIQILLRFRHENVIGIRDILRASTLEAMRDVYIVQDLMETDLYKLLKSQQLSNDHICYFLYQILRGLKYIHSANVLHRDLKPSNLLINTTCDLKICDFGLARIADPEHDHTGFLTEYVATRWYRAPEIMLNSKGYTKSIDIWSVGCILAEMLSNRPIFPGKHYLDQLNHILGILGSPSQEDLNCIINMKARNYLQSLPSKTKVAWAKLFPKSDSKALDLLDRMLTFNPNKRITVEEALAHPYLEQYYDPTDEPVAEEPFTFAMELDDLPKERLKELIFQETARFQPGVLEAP
T1 sequence (O60674 whole entry): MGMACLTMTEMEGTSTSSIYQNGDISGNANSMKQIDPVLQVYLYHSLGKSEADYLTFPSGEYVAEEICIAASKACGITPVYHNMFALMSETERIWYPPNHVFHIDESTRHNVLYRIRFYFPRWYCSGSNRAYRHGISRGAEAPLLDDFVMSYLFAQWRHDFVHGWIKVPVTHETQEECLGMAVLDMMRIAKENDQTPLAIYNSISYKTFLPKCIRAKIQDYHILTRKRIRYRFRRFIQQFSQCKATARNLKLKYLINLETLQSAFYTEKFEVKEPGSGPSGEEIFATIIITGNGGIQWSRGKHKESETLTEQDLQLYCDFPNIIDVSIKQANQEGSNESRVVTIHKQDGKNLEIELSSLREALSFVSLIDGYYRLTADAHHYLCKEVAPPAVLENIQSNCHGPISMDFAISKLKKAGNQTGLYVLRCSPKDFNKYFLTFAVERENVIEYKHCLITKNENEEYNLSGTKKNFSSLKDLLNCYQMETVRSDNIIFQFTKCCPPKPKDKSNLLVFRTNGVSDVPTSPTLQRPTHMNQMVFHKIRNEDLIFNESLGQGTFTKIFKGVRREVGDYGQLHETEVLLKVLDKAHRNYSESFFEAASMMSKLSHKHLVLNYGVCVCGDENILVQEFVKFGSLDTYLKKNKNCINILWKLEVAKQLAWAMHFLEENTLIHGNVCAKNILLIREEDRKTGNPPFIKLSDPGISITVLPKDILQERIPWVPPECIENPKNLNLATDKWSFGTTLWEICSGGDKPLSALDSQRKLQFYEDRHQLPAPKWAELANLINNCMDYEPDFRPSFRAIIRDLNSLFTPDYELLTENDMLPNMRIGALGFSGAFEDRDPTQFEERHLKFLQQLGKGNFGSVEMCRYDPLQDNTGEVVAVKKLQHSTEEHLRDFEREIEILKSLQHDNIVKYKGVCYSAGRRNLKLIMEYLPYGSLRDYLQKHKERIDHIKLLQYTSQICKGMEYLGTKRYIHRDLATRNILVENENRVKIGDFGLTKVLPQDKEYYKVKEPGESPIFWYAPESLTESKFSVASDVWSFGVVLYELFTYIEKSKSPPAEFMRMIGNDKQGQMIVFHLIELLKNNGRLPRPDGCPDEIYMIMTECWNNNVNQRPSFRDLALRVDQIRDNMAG
T3 sequence (P12931 whole entry): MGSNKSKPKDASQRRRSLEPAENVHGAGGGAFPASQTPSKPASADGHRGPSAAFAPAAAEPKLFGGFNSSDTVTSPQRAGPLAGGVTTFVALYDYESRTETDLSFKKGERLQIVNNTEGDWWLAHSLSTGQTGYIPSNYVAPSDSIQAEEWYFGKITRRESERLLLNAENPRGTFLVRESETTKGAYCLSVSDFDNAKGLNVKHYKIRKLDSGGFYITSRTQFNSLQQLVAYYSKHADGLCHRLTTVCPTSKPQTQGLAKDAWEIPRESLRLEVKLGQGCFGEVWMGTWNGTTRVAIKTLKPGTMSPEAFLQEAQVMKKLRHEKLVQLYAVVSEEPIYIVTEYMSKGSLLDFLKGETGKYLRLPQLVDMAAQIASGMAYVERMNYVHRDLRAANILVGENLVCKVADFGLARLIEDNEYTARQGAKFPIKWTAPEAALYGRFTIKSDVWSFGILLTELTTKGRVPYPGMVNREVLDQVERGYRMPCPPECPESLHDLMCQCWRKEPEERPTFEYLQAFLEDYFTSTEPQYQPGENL

SMILES: CC(=O)Oc1cc(N(Cc2ccc(C3CCCCC3)cc2)C(=O)CN(C)S(=O)(=O)c2c(F)c(F)c(F)c(F)c2F)ccc1C(=O)O [SH-04-08, 2-acetoxy-4-(N-(4-cyclohexylbenzyl)-2-(2,3,4,5,6-pentafluoro-N-methylphenylsulfonamido)acetamido)benzoic acid]
- IC50 [1, 16]: 0.9 µM
- IC50 [2]: 12000 nM
- IC50 [3]: < 1000 nM
- IC50 [4]: < 1000 nM

SMILES: Cc1ccc(S(=O)(=O)N(C)CC(=O)N(Cc2ccc(C3CCCCC3)cc2)c2ccc(C(=O)O)c(F)c2)cc1 [Compound 43, 4-(N-(4-cyclohexylbenzyl)-2-(N,4-dimethylphenylsulfonamido)acetamido)-2-fluorobenzoic acid]
- 73M IC50 (μM) ([5]; Table 4 library screen): no effect
- 30M IC50 (μM) [1, 17]: no effect
- 147EF IC50 (μM) [6]: no effect
- 68EF IC50 (μM) [7]: no effect

SMILES: CC(=O)Oc1cc(N(Cc2ccc(C3CCCCC3)cc2)C(=O)CN(C)S(=O)(=O)c2ccc(C)cc2)ccc1C(=O)O [Compound 23, 2-acetoxy-4-(N-(4-cyclohexylbenzyl)-2-(N,4-dimethylphenylsulfonamido)acetamido)benzoic acid]
- 73M IC50 (μM) ([5]; Table 4 library screen): no effect
- 30M IC50 (μM) [1, 17]: no effect
- 147EF IC50 (μM) [6]: no effect
- 68EF IC50 (μM) [7]: no effect

SMILES: CN(CC(=O)N(Cc1ccc(C2CCCCC2)cc1)c1ccc(NC(=O)Cc2nnn[nH]2)cc1)S(=O)(=O)c1c(F)c(F)c(F)c(F)c1F [Compound 41, N-(4-(2-(1H-tetrazol-5-yl)acetamido)phenyl)-N-(4-cyclohexylbenzyl)-2-(2,3,4,5,6-pentafluoro-N-methylphenylsulfonamido)acetamide]
- IC50 [5, 18]: 3.5 µM
- IC50 [8]: 16400 nM

SMILES: C[C@H](NC(=O)/C(C#N)=C/c1cccc(Br)n1)c1ccccc1 [WP1066, reference compound]
- IC50 ([5]; Table 2, BTSC 73M, 72 hrs, read-out: IC50 (μM) 73M): 2.1 µM
- IC50 ([1]; read-out: IC50 (μM) 30M, Table 2, BTSC 30M, alamarBlue, 72 hrs): 1.8 ± 0.22 µM
- pSTAT3 suppression, comparative Western blot [9]: equipotent pSTAT3 suppression

SMILES: CN(CC(=O)N(Cc1ccc(C2CCCCC2)cc1)c1ccc(C(=O)O)c(O)c1)S(=O)(=O)c1c(F)c(F)c(F)c(F)c1F [Compound 1, reference compound]
- activity against BTSCs (in words) ([10]; cytotoxicity, alamarBlue): low μM activity

- IC50 [2]: 14200 nM
- IC50 [3]: < 1000 nM
- IC50 [4]: < 1000 nM
SMILES: CN(CC(=O)N(Cc1ccc(C2CCCCC2)cc1)c1ccc(C(=O)O)c(F)c1)S(=O)(=O)c1c(F)c(F)c(F)c(F)c1F [Compound 33, 4-(N-(4-cyclohexylbenzyl)-2-(2,3,4,5,6-pentafluoro-N-methylphenylsulfonamido)acetamido)-2-fluorobenzoic acid]
- IC50 [5, 18]: 1.23 µM
- IC50 [1, 19]: 0.724 µM
- IC50 ([1]; read-out: IC50 (nM) in BTSC 30M): 0.724 ± 0.013 µM
- IC50 [1, 16]: 0.689 µM
- IC50 [6]: 935 nM
- EC50 ([10]; Homo sapiens, collective range over 8 BTSC lines, read-out: EC50s across all 8 BTSCs evaluated): 66 to 1140 nM
- IC50 ([10]; Homo sapiens, collective range, units given in the value, read-out: IC50 values of the top four ranked compounds against BTSCs): 100 to 3800 nM
- IC50 [7]: 1460 nM

SMILES: Cc1ccc(S(=O)(=O)N(C)CC(=O)N(Cc2ccc(C3CCCCC3)cc2)c2ccc(C(=O)NO)cc2)cc1 [Compound 44, 4-(N-(4-cyclohexylbenzyl)-2-(N,4-dimethylphenylsulfonamido)acetamido)-N-hydroxybenzamide]
- 73M IC50 (μM) ([5]; Table 4 library screen): no effect
- 30M IC50 (μM) [1, 17]: no effect
- IC50 [6]: 2450 nM
- IC50 [7]: 1740 nM

SMILES: CC(=O)Oc1cc(N(Cc2ccc(C3CCCCC3)cc2)C(=O)CN(C)S(=O)(=O)c2ccc(C)cc2)ccc1C(=O)O [SH-05-19, 2-acetoxy-4-(N-(4-cyclohexylbenzyl)-2-(N,4-dimethylphenylsulfonamido)acetamido)benzoic acid]
- IC50 [1, 16]: 0.505 µM
- IC50 [2]: 9800 nM
- remaining activity at 5 µM ([11]; read-out: % Enzyme activity relative to DMSO (control), JAK2): 46.1%
- % Enzyme activity relative to DMSO (control), JAK2 ([11]; remaining activity): 47.70%
- remaining activity at 5 µM ([12]; read-out: % Enzyme activity relative to DMSO (control), ERK1): 119%
- % Enzyme activity relative to DMSO (control), ERK1 ([12]; remaining activity): 126.49%
- IC50 [3]: < 1000 nM
- remaining activity at 5 µM ([13]; read-out: % Enzyme activity relative to DMSO (control), c-Src): 41.6%
- % Enzyme activity relative to DMSO (control), c-Src ([13]; remaining activity): 39.16%
- remaining activity at 5 µM ([14]; read-out: % Enzyme activity relative to DMSO (control), JAK1): 98.3%
- % Enzyme activity relative to DMSO (control), JAK1 ([14]; remaining activity): 97.79%
- IC50 [4]: < 1000 nM
- remaining activity at 5 µM ([15]; read-out: % Enzyme activity relative to DMSO (control), AKT1): 90.6%
- % Enzyme activity relative to DMSO (control), AKT1 ([15]; remaining activity): 87.91%

SMILES: Cc1ccc(S(=O)(=O)N(C)CC(=O)N(Cc2ccc(C3CCCCC3)cc2)c2ccc(O)cc2)cc1 [Compound 45, N-(4-cyclohexylbenzyl)-2-(N,4-dimethylphenylsulfonamido)-N-(4-hydroxyphenyl)acetamide]
- 73M IC50 (μM) ([5]; Table 4 library screen): no effect
- 30M IC50 (μM) [1, 17]: no effect
- 147EF IC50 (μM) [6]: no effect
- 68EF IC50 (μM) [7]: no effect

SMILES: CN(CC(=O)N(Cc1ccc(C2CCCCC2)cc1)c1ccc(N)cc1)S(=O)(=O)c1c(F)c(F)c(F)c(F)c1F [Compound 10, N-(4-aminophenyl)-N-(4-cyclohexylbenzyl)-2-(2,3,4,5,6-pentafluoro-N-methylphenylsulfonamido)acetamide]
- IC50 [5, 18]: 1.81 µM
- IC50 [1, 19]: 1.33 µM
- IC50 [6]: 1460 nM
- IC50 [7]: 1720 nM
